Measured values taken from article PMC12704139, “(±)-Rutacycoumarins A and B: two pairs of unprecedented coumarin enantiomers from the aerial part of Ruta graveolens L. and chemically synthesized” (Pharmaceutical Biology, 2025).

How the values were obtained:
LPS-induced HepG2 cells [1] = test: ALT and AST in supernatant of LPS-induced HepG2 cells; format: cell-based, Homo sapiens; conditions: HepG2, 100 ng/mL LPS, compounds 10, 20, 40 μM; p < 0.01 vs. model
Method: (§1) An LPS-induced hepatocyte injury model was established in HepG2 cells by treatment with 100 ng/mL LPS, using silymarin as a positive control. After treatment with test compounds at concentrations of 10, 20, and 40 μM, the cell culture supernatant was collected and centrifuged at 1000 × g for 15 min at 4 °C. The levels of alanine aminotransferase (ALT) and aspartate aminotransferase (AST) in the supernatant were quantified using commercial assay kits according to the manufacturer’s instructions. Absorbance was measured at 510 nm using a microplate reader, and results are expressed in units per liter (U/L). Additionally, the concentrations of interleukin-4 (IL-4), interleukin-10 (IL-10), and tumor necrosis factor-α (TNF-α) in the supernatant were determined by enzyme-linked immunosorbent assay (ELISA) using corresponding commercial kits. All procedures were performed in strict accordance with the manufacturer’s protocols. Cytokine levels are reported in picograms per milliliter (pg/mL), as calculated from the respective standard curves.
Silymarin was used as a positive control. The supernatant of HepG2 cells was collected from different experimental groups and separated by centrifugation (4 °C, 1000 rpm, 15 minutes). The levels of ALT and AST in the supernatant were determined following the manufacturer's instructions provided with the commercial assay kits. The optical density (OD) values of each well were measured at a wavelength of 510 nm using a microplate reader. These values are expressed in units per liter (U/L) or millimoles per liter (mmol/L).

LPS-induced HepG2 cells [2] = test: IL-4, IL-10 and TNF-α in supernatant of LPS-induced HepG2 cells (ELISA); format: cell-based, Homo sapiens; conditions: for LPS-induced inflammatory response (pro-inflammatory cytokines): HepG2, LPS
Method: as §1
The cell culture supernatant was collected and separated by centrifugation at 4°C and 1000 rpm for 15 minutes. Levels of IL-4, IL-10, and TNF-α in the supernatant were determined using enzyme-linked immunosorbent assay (ELISA), strictly following the manufacturer’s protocols provided with the corresponding commercial ELISA kits. These values were quantified in picograms per milliliter (pg/mL) based on the standard curves generated.

recombinant human MAO-B = molecular target: T1, recombinant human MAO-B (Homo sapiens, UniProt P27338); test: Recombinant human MAO-B enzyme inhibition assay; format: biochemical
T1 construct: purchased Active Motif 31503
T1 sequence (P27338 1-520): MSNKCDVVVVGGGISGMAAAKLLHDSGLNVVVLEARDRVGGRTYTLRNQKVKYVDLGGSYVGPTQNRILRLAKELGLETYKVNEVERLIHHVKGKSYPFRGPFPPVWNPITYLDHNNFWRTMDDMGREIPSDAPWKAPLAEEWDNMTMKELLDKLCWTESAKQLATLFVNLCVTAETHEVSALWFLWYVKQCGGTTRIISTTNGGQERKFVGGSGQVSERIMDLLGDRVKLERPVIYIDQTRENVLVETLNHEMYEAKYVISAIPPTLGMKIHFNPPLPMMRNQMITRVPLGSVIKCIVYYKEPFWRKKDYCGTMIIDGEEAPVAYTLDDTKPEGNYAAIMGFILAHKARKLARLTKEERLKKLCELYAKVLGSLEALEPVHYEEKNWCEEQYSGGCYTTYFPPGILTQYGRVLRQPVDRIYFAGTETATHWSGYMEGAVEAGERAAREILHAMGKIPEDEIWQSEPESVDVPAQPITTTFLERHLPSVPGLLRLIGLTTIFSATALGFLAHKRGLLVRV
Method: All compounds were tested with technical replicates. Compounds (100× final concentration) in 384-well source plates were dispensed (200 nL per well) into assay plates. Min/Max control wells received 200 µL of 100% DMSO. All wells except the Min controls were supplemented with 10 μL of 10 nM MAO-B (Min controls received buffer instead). Plates were centrifuged at 1000 × g for 1 min and incubated at 25 °C for 15 min. Then, 10 μL of 0.5 μM substrate was added to each well. After further centrifugation, the plates were protected from light and incubated for 60 min. The reaction was terminated by adding 20 μL of stop solution, followed by centrifugation and a 20-min equilibration period. Fluorescence was measured using an EnVision microplate reader. The inhibition percentage was calculated as follows: Inhibition (%) = [signal (max)− signal (sample)]/[signal (max) − signal (min)] × 100. Dose–response curves were generated by plotting the logarithm of compound concentration (X-axis) against the percentage inhibition (Y-axis). Curve fitting was performed in GraphPad Prism 8 using the ‘log(inhibitor) vs. response -Variable slope’ model to determine the IC50 values for MAO-B inhibition.

human MAO-B (hMAO-B) = tested on: human MAO-B (hMAO-B); parameters: method as in Dhiman et al. [2018]; conditions: ref Dhiman et al. [2018], cited from earlier work
hMAO-B = tested on: hMAO-B; parameters: method as in Seong et al. [2019]; conditions: ref Seong et al. [2019]; cited from earlier work
hMAO-A = tested on: hMAO-A; parameters: method as in Seong et al. [2019]; conditions: ref Seong et al. [2019], cited from earlier work; for isoform selectivity (in words): hMAO-A versus hMAO-B
hMAO = tested on: hMAO; parameters: method as in Seong et al. [2019]; conditions: enzyme kinetic studies; ref Seong et al. [2019]; cited from earlier work
MAO = tested on: MAO; parameters: method as in Kozioł et al. [2020]; conditions: reference inhibitors at ∼3–5 μM; ref Kozioł et al. [2020]; cited from earlier work
liver injury = tested on: liver injury; parameters: method as in He et al. [2024]; conditions: suppressing TNF-α/JAK1/STAT3 signaling while enhancing IL-4/IL-10 production; ref He et al. [2024]; cited from earlier work
MAO-A = tested on: MAO-A; parameters: method as in Kozioł et al. [2020]; conditions: 6.17 μM; ref Kozioł et al. [2020]; cited from earlier work
human MAO-B = tested on: human MAO-B; parameters: method as in Kozioł et al. [2020]; conditions: 6.17 μM; ref Kozioł et al. [2020]; cited from earlier work
[3] = HepG2 supernatant, LPS, 10–40 μM, ELISA

CC1(C)CC1c1cc2ccc(O)cc2oc1=O (racemic) [(±)-1, (±)-Rutacycoumarin A]
LPS-elevated ALT level (LPS-induced HepG2 cells [1]): significant suppression
LPS-elevated AST level (LPS-induced HepG2 cells [1]): significant suppression
LPS-induced inflammatory response (pro-inflammatory cytokines) (LPS-induced HepG2 cells [2]): significant suppression
MAO-B inhibition (in words) (recombinant human MAO-B): potently inhibited

COc1cc2cc(C3CC3(C)C)c(=O)oc2cc1O (racemic) [(±)-2, (±)-Rutacycoumarin B]
LPS-elevated ALT level (LPS-induced HepG2 cells [1]): significant suppression
LPS-elevated AST level (LPS-induced HepG2 cells [1]): significant suppression
LPS-induced inflammatory response (pro-inflammatory cytokines) (LPS-induced HepG2 cells [2]): significant suppression
IL-4 level (LPS-induced HepG2 cells [2]; [3]): dose-dependently restored
IL-10 level (LPS-induced HepG2 cells [2]; [3]): dose-dependently restored
TNF-α expression (LPS-induced HepG2 cells [2]; [3]): suppressed
MAO-B inhibition (in words) (recombinant human MAO-B): potently inhibited

O=C(Oc1ccc2ccc(=O)oc2c1)C(O)c1ccccc1 (stereo not shown) [2-oxo-2H-chromen-7-yl 2-hydroxy-2-phenylacetate]
selectivity index (human MAO-B (hMAO-B); hMAO-B): 8.55
IC50 (human MAO-B (hMAO-B)): 10.32 ± 0.044 µM

O=Cc1cc2ccc(=O)oc2cc1O [6-formyl umbelliferone]
IC50 (hMAO-B): 15.3 µM
isoform selectivity (in words) (hMAO-A): selectivity for hMAO-A versus hMAO-B
IC50 (hMAO-A): 3.23 µM
mode of hMAO inhibition (hMAO): competitive

O=Cc1c(O)ccc2ccc(=O)oc12 [8-formyl umbelliferone]
isoform selectivity (in words) (hMAO-A): selectivity for hMAO-A versus hMAO-B
mode of hMAO inhibition (hMAO): competitive

C#CCN(C)CCCOc1ccc(Cl)cc1Cl [clorgyline]
MAO inhibition (MAO): > 99%

O=c1ccc2cc(O)c(O)cc2o1 [esculetin]
isoform selectivity (in words) (hMAO-A): selectivity for hMAO-A versus hMAO-B

Cn1c(-c2ccc3c(c2)OCO3)cc(=O)c2ccccc21 [graveoline]
hepatoprotective effect (liver injury): attenuates liver injury

C=CC(C)(C)c1cc2cc3c(cc2oc1=O)OC(C(C)(C)OC(C)=O)C3 (stereo not shown) [rutamarin]
inhibition of MAO-A (MAO-A): 25.15%
inhibition rate of human MAO-B (human MAO-B): 95.26%

COc1cc2ccc(=O)oc2cc1O [scopoletin]
isoform selectivity (in words) (hMAO-A): selectivity for hMAO-A versus hMAO-B

C#CCN(C)[C@H](C)Cc1ccccc1 [selegiline]
MAO inhibition (MAO): > 99%

O=C(O)c1cc2ccc(=O)oc2cc1O [umbelliferone-6-carboxylic acid]
isoform selectivity (in words) (hMAO-A): selectivity for hMAO-A versus hMAO-B

O=c1ccc2ccc(O)cc2o1 [umbelliferone]
isoform selectivity (in words) (hMAO-A): selectivity for hMAO-A versus hMAO-B
